# Measurements: patent publication US20240116951A1, “HETEROCYCLIC COMPOUNDS AND USES THEREOF” (Kumquat Biosciences Inc., priority 2022, published 2024)
# What was measured:
# Type in all cases: binding
# KRAS G12D = biological target: T1, KRAS G12D (Homo sapiens, UniProt P01116, G12D); experiment: HTRF assay of K-Ras G12D interaction with SOS1 (PPI-HTRF); details: HTRF, 5 nM KRAS G12D; read-out: PPI-HTRF-5 nM KRAS G12D
# T1 construct: made in house; host or cells: E. coli, e.g. BL21 (DE3)
# Outline: (§1)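 Equilibrium binding between GST-K-Ras and His-tagged human SOS1 is measured by FRET from a europium anti-GST donor to an XL665 anti-His acceptor. Compounds are run in duplicate at 10, 2.5, 0.63, 0.16, 0.04 and 0.01 μM, and IC50 is calculated from the 665/620 nm ratio.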
# KRAS G12S = biological target: T2, KRAS G12S (Homo sapiens, UniProt P01116, G12S); experiment: HTRF assay of K-Ras G12S interaction with SOS1 (PPI-HTRF); details: 5 nM KRAS G12S, read-out: PPI-HTRF-5 nM KRAS G12S
# T2 construct: made in house; host or cells: E. coli, e.g. BL21 (DE3)
# T2 sequence (P01116 1-188 isoform P01116-2 G12S): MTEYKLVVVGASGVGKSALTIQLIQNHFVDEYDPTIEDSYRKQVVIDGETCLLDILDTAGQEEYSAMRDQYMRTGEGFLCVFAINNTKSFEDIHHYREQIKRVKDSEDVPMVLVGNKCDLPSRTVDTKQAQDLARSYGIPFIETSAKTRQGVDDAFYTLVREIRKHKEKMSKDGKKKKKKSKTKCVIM
# Outline: as §1
# KRAS WT = biological target: T3, KRAS WT (Homo sapiens, UniProt P01116); experiment: HTRF assay of wildtype K-Ras interaction with SOS1 (PPI-HTRF); details: HTRF, 5 nM KRAS WT; read-out: PPI-HTRF-5 nM KRAS WT
# T3 construct: made in house; host or cells: E. coli, e.g. BL21 (DE3)
# T3 sequence (P01116 1-188 isoform P01116-2): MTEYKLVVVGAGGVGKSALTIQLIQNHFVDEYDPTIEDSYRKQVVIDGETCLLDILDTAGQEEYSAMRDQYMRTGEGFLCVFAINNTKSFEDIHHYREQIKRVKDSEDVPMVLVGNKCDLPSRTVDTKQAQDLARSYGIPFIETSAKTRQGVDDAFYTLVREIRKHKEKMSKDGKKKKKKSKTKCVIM
# Outline: as §1
# T1 sequence (P01116 1-188 isoform P01116-2 G12D): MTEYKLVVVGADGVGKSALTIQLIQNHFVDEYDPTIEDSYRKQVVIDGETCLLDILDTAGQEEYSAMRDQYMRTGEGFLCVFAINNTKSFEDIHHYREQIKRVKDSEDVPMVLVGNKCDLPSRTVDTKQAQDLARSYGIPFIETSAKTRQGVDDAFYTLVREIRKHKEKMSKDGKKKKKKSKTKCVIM
Structure (SMILES),IC50 (KRAS G12D),IC50 (KRAS G12S),IC50 (KRAS WT)
"N#Cc1c(N)sc2c(F)ccc(-c3c(F)c4nc(OC[C@@]56CCCN5C[C@H](F)C6)nc(N5CCC6(CCN6C(=O)n6cncn6)C5)c4c(=O)n3C3CC3)c12 (stereo partly drawn) [Compound 267, 4-(4-(1-(1H-1,2,4-triazole-1-carbonyl)-1,6-diazaspiro[3.4]octan-6-yl)-6-cyclopropyl-8-fluoro-2-(((2R,7aS)-2-fluorotetrahydro-1H-pyrrolizin-7a(5H)-yl)methoxy)-5-oxo-5,6-dihydropyrido[4,3-d]pyrimidin-7-yl)-2-amino-7-fluorobenzo[b]thiophene-3-carbonitrile]",< 5 µM,< 5 µM,< 5 µM
"N#Cc1c(N)sc2c(F)ccc(-c3c(Cl)cc4c(N5CC[C@]6(CCN6C(=O)n6cncn6)C5)nc(OC[C@@]56CCCN5C[C@H](F)C6)nc4c3F)c12 [Compound 305, 4-(4-((S)-1-(1H-1,2,4-triazole-1-carbonyl)-1,6-diazaspiro[3.4]octan-6-yl)-6-chloro-8-fluoro-2-(((2R,7aS)-2-fluorotetrahydro-1H-pyrrolizin-7a(5H)-yl)methoxy)quinazolin-7-yl)-2-amino-7-fluorobenzo[b]thiophene-3-carbonitrile]",< 5 µM,< 5 µM,< 5 µM
"Nc1nc2c(-c3c(Cl)cc4c(N5CC6(CCN6)C5)nc(OC[C@@]56CCCN5C[C@H](F)C6)nc4c3F)ccc(F)c2s1 [Compound 259, 4-(6-chloro-8-fluoro-2-(((2R,7aS)-2-fluorotetrahydro-1H-pyrrolizin-7a(5H)-yl)methoxy)-4-(1,6-diazaspiro[3.3]heptan-6-yl)quinazolin-7-yl)-7-fluorobenzo[d]thiazol-2-amine]",< 5 µM,< 5 µM,< 5 µM
"C#Cc1c(F)ccc2cc(O)cc(-c3ncc4c(N5CCC6(CCN6C(=O)n6cncn6)C5)nc(OC[C@@]56CCCN5C[C@H](F)C6)nc4c3F)c12 (stereo partly drawn) [Compound 270, (6-(7-(8-ethynyl-7-fluoro-3-hydroxynaphthalen-1-yl)-8-fluoro-2-(((2R,7aS)-2-fluorotetrahydro-1H-pyrrolizin-7a(5H)-yl)methoxy)pyrido[4,3-d]pyrimidin-4-yl)-1,6-diazaspiro[3.4]octan-1-yl)(1H-1,2,4-triazol-1-yl)methanone]",< 5 µM,< 5 µM,< 5 µM
"N#Cc1c(N)sc2c(F)ccc(-c3c(Cl)cc4c(N5CCC6(CCN6C(=O)n6cc(C(F)(F)F)nn6)C5)nc(OC[C@@]56CCCN5C[C@H](F)C6)nc4c3F)c12 (stereo partly drawn) [Compound 318, 2-amino-4-(6-chloro-8-fluoro-2-(((2R,7aS)-2-fluorotetrahydro-1H-pyrrolizin-7a(5H)-yl)methoxy)-4-(1-(4-(trifluoromethyl)-1H-1,2,3-triazole-1-carbonyl)-1,6-diazaspiro[3.4]octan-6-yl)quinazolin-7-yl)-7-fluorobenzo[b]thiophene-3-carbonitrile]",< 5 µM,< 5 µM,< 5 µM
"N#Cc1c(N)sc2c(F)ccc(-c3c(Cl)cc4c(N5CCC6(CCCN6C(=O)[C@@H]6N[C@H]6C6CC6)CC5)nc(OC[C@@]56CCCN5C[C@H](F)C6)nc4c3F)c12 [Compound 295, 2-amino-4-(6-chloro-4-(1-((2R,3S)-3-cyclopropylaziridine-2-carbonyl)-1,8-diazaspiro[4.5]decan-8-yl)-8-fluoro-2-(((2R,7aS)-2-fluorotetrahydro-1H-pyrrolizin-7a(5H)-yl)methoxy)quinazolin-7-yl)-7-fluorobenzo[b]thiophene-3-carbonitrile]",< 5 µM,< 5 µM,< 5 µM
"N#Cc1c(N)sc2c(F)ccc(-c3c(Cl)cc4c(N5CCCC6(CCCN6C(=O)n6cncn6)C5)nc(OC[C@@]56CCCN5C[C@H](F)C6)nc4c3F)c12 (stereo partly drawn) [Compound 208, 4-(4-(1-(1H-1,2,4-triazole-1-carbonyl)-1,7-diazaspiro[4.5]decan-7-yl)-6-chloro-8-fluoro-2-(((2R,7aS)-2-fluorotetrahydro-1H-pyrrolizin-7a(5H)-yl)methoxy)quinazolin-7-yl)-2-amino-7-fluorobenzo[b]thiophene-3-carbonitrile]",< 5 µM,< 5 µM,< 5 µM
"CN(C)C1CN(c2nc(N3CCC4(CCN4C(=O)n4cncn4)C3)c3cc(Cl)c(-c4ccc(F)c5sc(N)c(C#N)c45)c(F)c3n2)C1 (stereo not drawn) [Compound 203, 4-(4-(1-(1H-1,2,4-triazole-1-carbonyl)-1,6-diazaspiro[3.4]octan-6-yl)-6-chloro-2-(3-(dimethylamino)azetidin-1-yl)-8-fluoroquinazolin-7-yl)-2-amino-7-fluorobenzo[b]thiophene-3-carbonitrile]",> 5 µM,< 5 µM,< 5 µM
"CN1CCC[C@H]1COc1nc(N2CCC3(CC2)NC(=O)NC3=O)c2cc(Cl)c(-c3cccc4sc(N)nc34)c(F)c2n1 [Compound 249, 8-(7-(2-aminobenzo[d]thiazol-4-yl)-6-chloro-8-fluoro-2-(((S)-1-methylpyrrolidin-2-yl)methoxy)quinazolin-4-yl)-1,3,8-triazaspiro[4.5]decane-2,4-dione]",< 5 µM,< 5 µM,< 5 µM

# Continued, values first:
IC50 (KRAS G12D),IC50 (KRAS G12S),IC50 (KRAS WT),Structure (SMILES)
< 5 µM,< 5 µM,< 5 µM,"C[C@H](Oc1nc(N2CCC3(CCN3C(=O)[C@@H]3C[C@H]3F)C2)c2cc(Cl)c(-c3ccc(F)c4sc(N)c(C#N)c34)c(F)c2n1)[C@@H]1CCCN1C (stereo partly drawn) [Compound 271, 2-amino-4-(6-chloro-8-fluoro-4-(1-((1S,2R)-2-fluorocyclopropane-1-carbonyl)-1,6-diazaspiro[3.4]octan-6-yl)-2-((S)-1-((S)-1-methylpyrrolidin-2-yl)ethoxy)quinazolin-7-yl)-7-fluorobenzo[b]thiophene-3-carbonitrile]"
< 5 µM,< 5 µM,< 5 µM,"Cc1nc(C)n(C(=O)N2CC[C@@]23CCN(c2nc(OC[C@@]45CCCN4C[C@H](F)C5)nc4c(F)c(-c5ccc(F)c6sc(N)c(C#N)c56)c(Cl)cc24)C3)n1 [Compound 307, 2-amino-4-(6-chloro-4-((R)-1-(3,5-dimethyl-1H-1,2,4-triazole-1-carbonyl)-1,6-diazaspiro[3.4]octan-6-yl)-8-fluoro-2-(((2R,7aS)-2-fluorotetrahydro-1H-pyrrolizin-7a(5H)-yl)methoxy)quinazolin-7-yl)-7-fluorobenzo[b]thiophene-3-carbonitrile]"
< 5 µM,< 5 µM,< 5 µM,"N#Cc1c(N)sc2c(F)ccc(-c3c(Cl)cc4c(N5CCC6(CCN6C(=O)C(F)Cl)C5)nc(OC[C@@]56CCCN5C[C@H](F)C6)nc4c3F)c12 (stereo partly drawn) [Compound 244, 2-amino-4-(6-chloro-4-(1-(2-chloro-2-fluoroacetyl)-1,6-diazaspiro[3.4]octan-6-yl)-8-fluoro-2-(((2R,7aS)-2-fluorotetrahydro-1H-pyrrolizin-7a(5H)-yl)methoxy)quinazolin-7-yl)-7-fluorobenzo[b]thiophene-3-carbonitrile]"
< 5 µM,< 5 µM,< 5 µM,C=CC(=O)N1CC[C@@]12CCN(c1nc(OC[C@@]34CCCN3C[C@H](F)C4)nc3c(F)c(-c4ccc(F)c5sc(N)c(C#N)c45)c(Cl)cc13)C2 [Compound 291]
< 5 µM,< 5 µM,< 5 µM,"N#Cc1c(N)sc2c(F)ccc(-c3c(Cl)cc4c(N5CCC6(CCN6C(=O)n6ccnc6C#N)C5)nc(OC[C@@]56CCCN5C[C@H](F)C6)nc4c3F)c12 (stereo partly drawn) [Compound 287, 1-(6-(7-(2-amino-3-cyano-7-fluorobenzo[b]thiophen-4-yl)-6-chloro-8-fluoro-2-(((2R,7aS)-2-fluorotetrahydro-1H-pyrrolizin-7a(5H)-yl)methoxy)quinazolin-4-yl)-1,6-diazaspiro[3.4]octane-1-carbonyl)-1H-imidazole-2-carbonitrile]"
< 5 µM,< 5 µM,< 5 µM,"N#Cc1c(N)sc2c(F)ccc(-c3c(Cl)cc4c(N5CC6(CCN6C(=O)C6CC6(F)F)C5)nc(OC[C@@]56CCCN5C[C@H](F)C6)nc4c3F)c12 (stereo partly drawn) [Compound 340, 2-amino-4-(6-chloro-4-(1-(2,2-difluorocyclopropane-1-carbonyl)-1,6-diazaspiro[3.3]heptan-6-yl)-8-fluoro-2-(((2R,7aS)-2-fluorotetrahydro-1H-pyrrolizin-7a(5H)-yl)methoxy)quinazolin-7-yl)-7-fluorobenzo[b]thiophene-3-carbonitrile]"
< 5 µM,< 5 µM,< 5 µM,"Cc1nc(C)n(C(=O)N2CC[C@]23CCN(c2nc(OC[C@@]45CCCN4C[C@H](F)C5)nc4c(F)c(-c5ccc(F)c6sc(N)c(C#N)c56)c(Cl)cc24)C3)n1 [Compound 306, 2-amino-4-(6-chloro-4-((S)-1-(3,5-dimethyl-1H-1,2,4-triazole-1-carbonyl)-1,6-diazaspiro[3.4]octan-6-yl)-8-fluoro-2-(((2R,7aS)-2-fluorotetrahydro-1H-pyrrolizin-7a(5H)-yl)methoxy)quinazolin-7-yl)-7-fluorobenzo[b]thiophene-3-carbonitrile]"
< 5 µM,< 5 µM,< 5 µM,"C[C@H](Oc1nc(N2CCCC3(CCN3C(=O)[C@@H]3C[C@H]3C#N)C2)c2cc(Cl)c(-c3ccc(F)c4sc(N)c(C#N)c34)c(F)c2n1)[C@@H]1CCCN1C (stereo partly drawn) [Compound 235, 2-amino-4-(6-chloro-4-(1-((1R,2R)-2-cyanocyclopropane-1-carbonyl)-1,6-diazaspiro[3.5]nonan-6-yl)-8-fluoro-2-((S)-1-((S)-1-methylpyrrolidin-2-yl)ethoxy)quinazolin-7-yl)-7-fluorobenzo[b]thiophene-3-carbonitrile]"
